For 14 molecules, EC50, Activity and Papp results are on record in ChEMBL document CHEMBL2331192, “Naphthalenyl derivatives for hitting P-gp/MRP1/BCRP transporters” (Bioorg Med Chem, 2013).

Data set [1] concerns the target T1, ATP-dependent translocase ABCB1 (Homo sapiens, UniProt P08183). Put plainly: Activity at MDR1 (unknown origin) expressed in MDCK cells assessed as interference with calcein-AM efflux incubated for 30 mins prior to calcein-Am addition measured after 30 mins by fluorometric analysis. It is filed as cell-based.
The target of data set [2] is Multidrug resistance-associated protein 1 (Homo sapiens, UniProt P33527). Nature of the data set: Activity at MRP1 (unknown origin) expressed in MDCK cells assessed as interference calcein-AM efflux incubated for 30 mins prior to calcein-Am addition measured after 30 mins by fluorometric analysis. It is filed as cell-based.
Multidrug resistance-associated protein 1, sequence (P33527 whole entry): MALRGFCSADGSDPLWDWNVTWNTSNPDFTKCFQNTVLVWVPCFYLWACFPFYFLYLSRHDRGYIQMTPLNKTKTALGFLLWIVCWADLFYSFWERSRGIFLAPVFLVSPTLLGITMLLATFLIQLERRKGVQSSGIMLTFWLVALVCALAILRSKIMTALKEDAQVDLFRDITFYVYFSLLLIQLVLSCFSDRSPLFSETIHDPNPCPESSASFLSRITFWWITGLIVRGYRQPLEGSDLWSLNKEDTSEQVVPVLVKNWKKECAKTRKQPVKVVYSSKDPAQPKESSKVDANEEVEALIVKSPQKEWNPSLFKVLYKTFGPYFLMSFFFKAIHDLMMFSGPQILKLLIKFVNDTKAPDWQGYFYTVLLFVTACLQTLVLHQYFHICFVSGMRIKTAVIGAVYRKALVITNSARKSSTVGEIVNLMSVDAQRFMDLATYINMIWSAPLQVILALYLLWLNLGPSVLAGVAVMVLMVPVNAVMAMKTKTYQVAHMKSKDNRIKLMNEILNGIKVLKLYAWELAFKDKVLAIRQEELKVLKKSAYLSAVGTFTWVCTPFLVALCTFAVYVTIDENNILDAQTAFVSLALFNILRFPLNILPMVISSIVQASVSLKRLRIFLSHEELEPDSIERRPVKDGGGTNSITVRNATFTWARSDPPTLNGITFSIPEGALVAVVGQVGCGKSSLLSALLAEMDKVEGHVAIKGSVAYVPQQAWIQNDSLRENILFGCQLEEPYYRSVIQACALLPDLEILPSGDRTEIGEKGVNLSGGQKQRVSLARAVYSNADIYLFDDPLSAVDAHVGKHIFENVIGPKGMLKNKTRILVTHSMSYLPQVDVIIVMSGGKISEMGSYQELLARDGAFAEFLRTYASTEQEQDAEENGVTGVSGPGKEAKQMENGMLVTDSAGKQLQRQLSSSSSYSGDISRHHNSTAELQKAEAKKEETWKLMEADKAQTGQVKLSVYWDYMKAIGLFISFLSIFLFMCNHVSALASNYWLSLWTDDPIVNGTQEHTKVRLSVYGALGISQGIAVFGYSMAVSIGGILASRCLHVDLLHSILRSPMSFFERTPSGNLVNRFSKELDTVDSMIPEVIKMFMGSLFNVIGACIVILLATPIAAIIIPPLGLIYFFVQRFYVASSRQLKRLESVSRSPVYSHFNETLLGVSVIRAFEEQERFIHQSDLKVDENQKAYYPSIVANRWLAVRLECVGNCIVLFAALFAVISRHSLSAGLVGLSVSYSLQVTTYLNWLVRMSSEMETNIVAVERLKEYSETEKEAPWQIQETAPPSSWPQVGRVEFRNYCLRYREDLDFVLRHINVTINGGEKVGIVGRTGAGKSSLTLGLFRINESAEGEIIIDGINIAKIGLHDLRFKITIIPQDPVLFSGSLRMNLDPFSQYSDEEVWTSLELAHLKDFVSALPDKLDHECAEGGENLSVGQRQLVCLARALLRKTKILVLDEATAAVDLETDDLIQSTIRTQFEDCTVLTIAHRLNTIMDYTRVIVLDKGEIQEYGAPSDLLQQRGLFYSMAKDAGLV
The target in data set [3] is T2, Broad substrate specificity ATP-binding cassette transporter ABCG2 (Homo sapiens, UniProt Q9UNQ0).
T2 sequence (Q9UNQ0 whole entry): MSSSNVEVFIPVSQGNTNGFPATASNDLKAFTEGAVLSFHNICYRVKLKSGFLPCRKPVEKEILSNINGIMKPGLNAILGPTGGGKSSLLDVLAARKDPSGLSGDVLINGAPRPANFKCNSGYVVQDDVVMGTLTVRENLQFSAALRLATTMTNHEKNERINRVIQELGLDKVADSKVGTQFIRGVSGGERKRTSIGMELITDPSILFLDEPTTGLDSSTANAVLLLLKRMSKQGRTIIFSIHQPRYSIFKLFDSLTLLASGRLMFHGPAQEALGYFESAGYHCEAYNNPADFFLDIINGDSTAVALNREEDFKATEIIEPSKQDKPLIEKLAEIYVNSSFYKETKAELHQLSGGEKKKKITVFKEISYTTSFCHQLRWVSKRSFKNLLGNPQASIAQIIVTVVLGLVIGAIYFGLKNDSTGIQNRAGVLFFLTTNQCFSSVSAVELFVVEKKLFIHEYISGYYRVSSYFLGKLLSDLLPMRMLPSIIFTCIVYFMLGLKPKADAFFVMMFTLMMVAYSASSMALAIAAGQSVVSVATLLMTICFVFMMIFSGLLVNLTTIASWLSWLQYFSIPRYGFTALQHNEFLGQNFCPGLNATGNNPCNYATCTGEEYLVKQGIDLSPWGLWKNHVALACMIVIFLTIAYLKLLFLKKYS
Put plainly: Activity at BCRP (unknown origin) expressed in MDCK cells assessed as interference with rhodamine-123 efflux. It is filed as cell-based.

Data set [4] deals with T2, Broad substrate specificity ATP-binding cassette transporter ABCG2. Nature of the data set: Activity at BCRP (unknown origin) expressed in MDCK cells assessed as interference with rhodamine-123 efflux at 200 nM. The following applies: 0.2 µM. The class given is cell-based.
The nature of data set [5]: Apparent permeability across human Caco2 cells after 2 hrs. It is filed as ADME, cell-based. The following applies: Caco-2. In general terms: Caco-2 monolayers are a common model of the intestinal barrier.
Data set [6] addresses T1, ATP-dependent translocase ABCB1. Nature of the data set: Activity at MDR1 (unknown origin) expressed in MDCK cells assessed as ATPase activity after 2 hrs by ATPlite assay. It is filed as cell-based.

For orientation: EC50 means the midpoint of the concentration-response curve. In general, Papp refers to the rate of passage across a membrane or cell layer, normalised by area and donor concentration.

Structures are written as SMILES.

T1 sequence (P08183 whole entry): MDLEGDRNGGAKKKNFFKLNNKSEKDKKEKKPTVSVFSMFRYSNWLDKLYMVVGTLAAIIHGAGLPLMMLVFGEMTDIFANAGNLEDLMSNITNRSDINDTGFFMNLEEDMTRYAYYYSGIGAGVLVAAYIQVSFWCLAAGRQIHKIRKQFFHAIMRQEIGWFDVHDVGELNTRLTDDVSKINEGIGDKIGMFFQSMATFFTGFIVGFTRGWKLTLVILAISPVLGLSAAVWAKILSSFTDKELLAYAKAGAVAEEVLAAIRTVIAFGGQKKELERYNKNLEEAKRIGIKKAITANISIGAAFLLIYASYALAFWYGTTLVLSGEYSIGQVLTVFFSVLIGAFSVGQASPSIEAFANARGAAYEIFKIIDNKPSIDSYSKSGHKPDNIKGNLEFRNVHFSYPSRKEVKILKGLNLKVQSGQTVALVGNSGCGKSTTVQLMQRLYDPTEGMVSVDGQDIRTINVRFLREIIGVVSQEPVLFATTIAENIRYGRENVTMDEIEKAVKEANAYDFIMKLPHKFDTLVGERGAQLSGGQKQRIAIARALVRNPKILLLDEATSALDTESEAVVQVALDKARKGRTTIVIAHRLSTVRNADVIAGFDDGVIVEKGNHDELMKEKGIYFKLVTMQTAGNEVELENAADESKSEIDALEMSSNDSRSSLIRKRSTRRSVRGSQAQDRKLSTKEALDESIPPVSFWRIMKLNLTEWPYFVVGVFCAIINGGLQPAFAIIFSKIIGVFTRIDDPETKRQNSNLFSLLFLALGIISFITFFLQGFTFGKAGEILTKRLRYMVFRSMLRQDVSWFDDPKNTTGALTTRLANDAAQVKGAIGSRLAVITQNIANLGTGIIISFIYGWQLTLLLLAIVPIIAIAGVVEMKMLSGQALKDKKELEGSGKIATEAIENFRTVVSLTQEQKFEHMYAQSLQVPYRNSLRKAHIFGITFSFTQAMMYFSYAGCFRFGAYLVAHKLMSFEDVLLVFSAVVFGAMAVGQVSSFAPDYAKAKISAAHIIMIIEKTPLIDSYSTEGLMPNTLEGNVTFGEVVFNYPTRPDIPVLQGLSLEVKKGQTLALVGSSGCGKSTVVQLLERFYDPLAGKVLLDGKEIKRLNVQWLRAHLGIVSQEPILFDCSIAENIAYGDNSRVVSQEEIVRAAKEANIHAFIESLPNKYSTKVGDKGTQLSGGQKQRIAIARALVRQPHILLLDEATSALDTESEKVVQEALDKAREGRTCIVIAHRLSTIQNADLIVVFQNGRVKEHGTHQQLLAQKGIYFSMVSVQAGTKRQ

For `COc1cc2c(cc1OC)CN(Cc1ccc(-c3ccc(O)cc3)cc1)CC2`, the results for the EC50 in data set [1], in data set [2] and in data set [3] were 0.69 µM, 9.3 µM and 73 µM, respectively.

As to `COc1ccc2cc(-c3nc(CN4CCc5cc(OC)c(OC)cc5C4)cs3)ccc2c1`, the Activity result is “Not Active” in data set [4] and “Active” in data set [6]. Moreover, in data set [5], the apparent permeability coefficient (Papp) at 2 h came out at 0.6 ×10⁻⁶ cm/s.

For `COc1cc2c(cc1OC)CN(Cc1coc(-c3ccc4ccccc4c3)n1)CC2`, the concentration giving a half-maximal response (EC50) in data set [1] was 2.3 µM. Besides, the Papp at 2 h in data set [5] was 0.038 ×10⁻⁶ cm/s. Also, in data set [6], the Activity result is “Not Active”.

In the case of `COc1cc2c(cc1OC)CN(Cc1ccc(-c3ccc4ccccc4c3)o1)CC2`, the half-maximal effective concentration (EC50) in data set [1] is 7.1 µM; in data set [2], over 100 µM. Moreover, the Papp at 2 h in data set [5] amounted to 0.33 ×10⁻⁶ cm/s. Also, the Activity entry in data set [6] is listed as “Not Active”.

In the case of `COc1cc2c(cc1OC)CN(CC/C=C1\CCCc3c(OC)cccc31)CC2`, the 50% effective concentration (EC50) in data set [1] was 1.5 µM; in data set [2] it was 2.8 µM.

`COc1cc2c(cc1OC)CN(Cc1csc(-c3ccc4cc(Br)ccc4c3)n1)CC2`: the Activity result in data set [4] is given as “Not Active”; in data set [6], “Active”. For the same molecule, the Papp at 2 h in data set [5] turned out to be 0.59 ×10⁻⁶ cm/s.

Take `COc1cc2c(cc1OC)CN(Cc1csc(-c3ccc4ccccc4c3)n1)CC2`: the concentration for a half-maximal effect (EC50) in data set [1] is 3.5 µM; in data set [2], 3.2 µM. Also, the Papp at 2 h in data set [5] is 2.37 ×10⁻⁶ cm/s. For the same molecule, the Activity entry in data set [6] is “Not Active”.

On to `COc1ccc2cc(-c3ccc(CN4CCc5cc(OC)c(OC)cc5C4)o3)ccc2c1`, for which the EC50 in data set [1] was 2.9 µM; in data set [2], over 100 µM. Moreover, in data set [5], the apparent permeability coefficient (Papp) at 2 h was 0.408 ×10⁻⁶ cm/s. Further, the Activity result in data set [6] was “Not Active”.

On to `COc1cc2c(cc1OC)CN(CCCC1CCCc3c(OC)cccc31)CC2` (centres undefined), for which the concentration for a half-maximal effect (EC50) in data set [2] is over 100 µM.

As for `COc1ccc2cc(-c3nc(CN4CCc5cc(OC)c(OC)cc5C4)co3)ccc2c1`, the concentration for a half-maximal effect (EC50) is 0.6 µM in data set [1] and 14.7 µM in data set [2]. Also, the Activity entry was “Not Active” in data set [4] and “Active” in data set [6]. Further, the Papp at 2 h in data set [5] stood at 0.38 ×10⁻⁶ cm/s.

`COc1cc2c(cc1OC)CN(Cc1coc(-c3ccc4cc(Br)ccc4c3)n1)CC2`: the values for the EC50 in data set [1] and in data set [2] were 1.8 µM and over 100 µM, respectively. Moreover, in data set [5], the Papp at 2 h turned out to be 0.32 ×10⁻⁶ cm/s. Further, the Activity entry in data set [6] is on record as “Not Active”.

Take `COc1cc2c(cc1OC)CN(Cc1coc(-c3ccc4cc(F)ccc4c3)n1)CC2`: the apparent permeability coefficient (Papp) at 2 h in data set [5] stood at 0.082 ×10⁻⁶ cm/s. Further, in data set [6], the Activity result is recorded as “Not Active”.

On to `COc1cc2c(cc1OC)CN(Cc1csc(-c3ccc4cc(F)ccc4c3)n1)CC2`, for which the figures for the EC50 in data set [1] and in data set [2] were 4.8 µM and 8.8 µM, respectively. Also, the Papp at 2 h in data set [5] amounted to 0.95 ×10⁻⁶ cm/s. The Activity result in data set [6] is listed as “Not Active”.

Turning to `COc1cc2c(cc1OC)CN(Cc1coc(-c3ccc4cc(O)ccc4c3)n1)CC2`, the Papp at 2 h in data set [5] amounted to 0.157 ×10⁻⁶ cm/s. Moreover, the Activity result in data set [6] is on record as “Not Active”.
